Assays:
[1] = molecular target: T1, bradykinin receptors B1 (BRDKB1) (Homo sapiens, UniProt P46663); assay: Activity of bradykinin receptor BRDKB1, intracellular calcium, CHO cells; type: cell-based; settings: antagonist, LysdesArg9-BK agonist (3 nM)
T1 construct: expressed in transfected cells; host or cells: CHO cells
T1 sequence (P46663 1-353): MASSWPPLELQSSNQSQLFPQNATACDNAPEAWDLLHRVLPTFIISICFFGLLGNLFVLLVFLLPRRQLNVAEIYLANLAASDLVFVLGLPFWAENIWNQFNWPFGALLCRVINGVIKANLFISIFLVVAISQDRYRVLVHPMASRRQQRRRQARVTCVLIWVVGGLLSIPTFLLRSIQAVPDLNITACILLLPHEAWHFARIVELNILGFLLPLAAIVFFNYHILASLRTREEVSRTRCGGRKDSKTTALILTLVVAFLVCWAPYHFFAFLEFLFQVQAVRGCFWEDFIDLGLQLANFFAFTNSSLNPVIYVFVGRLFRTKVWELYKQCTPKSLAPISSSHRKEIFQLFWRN
Description: (§1) Compound 1 was dissolved in DMSO to a concentration of 100 mM; then a stock solution was serially diluted with DMSO. The maximum starting concentration of the substance is 100 μM. The effect was determined at 5 concentrations of the tested compounds, each concentration was studied twice. CHO cells expressing bradykinin receptors B1 were used in the experiment, these cells, after preincubation with a LysdesArg9-BK agonist (3 nM), were incubated with the test compound. The activity of receptors was determined according to the intracellular calcium concentration by fluorescence spectroscopy (Eur J Pharmacol. 2000 Mar. 24; 392(1-2):1-9).

[2] = molecular target: T2, melanocortin receptor MC4R (Homo sapiens, UniProt P32245); assay: Activity of melanocortin receptors MC4R, CHO cells; type: cell-based; settings: antagonist, NDP-alpha-MSH agonist (30 nM)
T2 construct: expressed in transfected cells; host or cells: CHO cells
Description: as §1, with “a melanocortin receptor MC4R” for “bradykinin receptors B1”, “NDP-alpha-MSH” for “LysdesArg9-BK”, “(30” for “(3”, “by the homogeneous time resolved” for “by”, “spectroscopy.” for “spectroscopy (Eur J Pharmacol. 2000 Mar. 24; 392(1-2):1-9).”

NF-kB signaling pathway = assay: Activity of NF-kB signaling pathway, Jurkat lacZ reporter; type: cell-based; settings: Homo sapiens; inhibitor; Jurkat T lymphocytes, β-galactosidase reporter, substrate FDG
[3] = test system: imiquimod-induced psoriasis on the back; assay: Mouse model of imiquimod-induced psoriasis on the back; type: in vivo; settings: for The gain of the thickness of the back skin to the thickness before the start of the study: 0.3% ointment, M ± m, n = 10
Description: Psoriasis was simulated in female balb/c mice by applying Aldar cream (5% imiquimod) on a previously shaved skin back area of 3×4 cm daily 1 time per day for 15 days (J Immunol. 2009 May 1; 182(9):5836-45). Intact animals were applied with vaseline: 120 mg per the shaved back area.
The assessment of the development of pathology was performed on the 10th, 12th, 13th and 15th day before the next application of Aldar cream according to the index: the thickness of the skin fold on the back. The thickness of the skin fold on the back was measured with a Digimatic MK-25 micrometer (Mitutoyo, Japan).

model of Crohn's disease = assay: Mouse model of Crohn's disease (TNBS); type: in vivo, male balb/c mice
Description: The study was performed on male balb/c mice. Animals, which starved for 24 hours, were injected with 150 μl/mouse of TNBS solution in 50% ethanol into the rectal hole of the mouse to the depth of 4 cm using a 3.5 F catheter. Next, the mice were turned upside down and held for 60 seconds. 150 μl of the 50% ethanol solution was injected into the healthy control (intact animals). The study lasted 7 days. The development of pathology was assessed by the death of animals.

[4] = test system: motility of the gastrointestinal tract; assay: Model of irritable bowel syndrome: motility of the gastrointestinal tract (activated carbon); type: in vivo, nonlinear male mice
Description: The effect on the motility of the gastrointestinal tract was studied on a model of irritable bowel syndrome in nonlinear male mice weighing 24-30 g. The animals were intragastrically injected with a solution of activated carbon (50 mg/ml, in a volume of 10 ml/kg) and the speed (in minutes) of the movement of activated coal through the intestines of animals. The compounds under study were intragastrically administered once 1 hour before the introduction of activated carbon. Drotaverine (6.7 mg/kg), Buscopan (3 mg/kg) and Trimedat (33 mg/kg) were used as reference drugs.

[5] = Stability in blood plasma, guinea pig; type: in vitro ADME; settings: for Content, % from the initial, Mean (n = 2): guinea pig blood plasma, 1 μM, 37° C.
Description: (§2) Compound 1 at a concentration of 1 μM was incubated for 24 hours in the blood plasma of human and various animal species (rats, mice, guinea pigs, rabbits, horses, dogs, bull, pygmy hogs) at 37° C. Aliquots were taken at time points of 0, 0.25, 1, 2, 4, 8 and 24 hours. In the case of blood plasma of rabbits and monkeys, Compound 1 was incubated for 4 hours, and aliquots were taken at time points 0, 0.25, 1, 4. After the protein precipitation with acetonitrile, samples were analyzed by HPLC-MS/MS to determine the concentration of Compound 1. Verapamil was used as a stable control.

[6] = Stability in blood plasma, monkey; type: in vitro ADME; settings: 1 μM, 37° C.
Description: as §2

[7] = Stability in blood plasma, rat; type: in vitro ADME; settings: for Content, % from the initial, Mean (n = 2): rat blood plasma, 1 μM, 37° C.
Description: as §2

[8] = Stability in blood plasma, pygmy hog; type: in vitro ADME; settings: 1 μM, 37° C.
Description: as §2

T2 sequence (P32245 whole entry): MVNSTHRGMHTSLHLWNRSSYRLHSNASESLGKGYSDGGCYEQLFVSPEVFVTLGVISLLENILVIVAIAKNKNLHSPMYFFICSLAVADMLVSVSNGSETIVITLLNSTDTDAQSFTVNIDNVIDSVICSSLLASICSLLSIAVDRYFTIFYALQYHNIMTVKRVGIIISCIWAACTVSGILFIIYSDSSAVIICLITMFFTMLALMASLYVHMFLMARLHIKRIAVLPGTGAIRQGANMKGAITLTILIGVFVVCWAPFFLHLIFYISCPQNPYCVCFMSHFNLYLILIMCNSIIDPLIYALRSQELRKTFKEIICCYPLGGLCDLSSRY

In the case of O=C(Cc1ccc(O)cc1)N[C@@H](Cc1ccccc1)C(=O)OCc1ccccc1 [Compound 1, benzyl (2S)-2-[2-(4-hydroxyphenyl)acetamido]-3-phenylpropanoate], the IC50 [1] is reported as 3.7 µM, the IC50 [2] is reported as 7.6 µM and the IC50 (NF-kB signaling pathway) is reported as 9.9 µM. For the same compound, the “The gain of the thickness of the back skin to the thickness before the start of the study” value (“The gain of the thickness … of the study” below) ([3]; day 10) was 23.1%, the “The gain of the thickness … of the study” value ([3]; day 12) was 19.9% and the “The gain of the thickness … of the study” value ([3]; day 13) was 20.5%. The “The gain of the thickness … of the study” value ([3]; day 15) was 22.4%, the “reduction of the gain of the thickness of the skin fold of the affected skin area” value ([3]; summary of table 2) was 2 times and the “The portion of dead animals” value (model of Crohn's disease; 50 mg/kg, 1 time per day, TNBS, 7 days, 10 animals) was 30%. The “decrease of the death of animals” value (model of Crohn's disease; summary of Table 4) was “more than 2 times”, the “The evacuation speed of activated carbon” value ([4]; 0.5 mg/kg once intragastrically 1 hour before activated carbon) was 89.45 ± 1.9 min and the “The evacuation speed of activated carbon” value ([4]; 1.5 mg/kg once intragastrically 1 hour before activated carbon) was 104.25 ± 5.49 min. The “The evacuation speed of activated carbon” value ([4]; 5 mg/kg once intragastrically 1 hour before activated carbon) was 107.67 ± 3.07 min, the “The evacuation speed of activated carbon” value ([4]; 10 mg/kg once intragastrically 1 hour before activated carbon) was 126.6 ± 3.66 min and the “The evacuation speed of activated carbon” value ([4]; 15 mg/kg once intragastrically 1 hour before activated carbon) was 123.13 ± 5.27 min. For the same compound, the “The evacuation speed of activated carbon” value ([4]; 50 mg/kg once intragastrically 1 hour before activated carbon) was 129.13 ± 3.19 min, the “The evacuation speed of activated carbon” value ([4]; 150 mg/kg once intragastrically 1 hour before activated carbon) was 135.63 ± 2.87 min and the “increase of the evacuation time of activated carbon” value ([4]; summary of table 7) was 2 times. The “hydrolysis in the blood plasma (in words)” value ([5]; blood plasma of guinea pigs, after 15 minutes) was “almost completely hydrolyzed”, the “Content, % from the initial, Mean (n = 2)” value (“Content, % from the initial” below) ([5]; 0 hour) was 100% and the “Content, % from the initial” value ([5]; 0.25 hour) was 0.00%. The “Content, % from the initial” value ([5]; 1 hour) was 0.00%, the “Content, % from the initial” value ([5]; 2 hour) was 0.00% and the “Content, % from the initial” value ([5]; 4 hour) was 0.00%. For the same compound, the “Content, % from the initial” value ([5]; 8 hour) was 0.00%, the “Content, % from the initial” value ([5]; 24 hour) was 0.00% and the “Content, % from the initial” value ([6]; 0 hour) was 100%. The “Content, % from the initial” value ([6]; 0.25 hour) was 38.3%, the “Content, % from the initial” value ([6]; 1 hour) was 1.69% and the “Content, % from the initial” value ([6]; 4 hour) was 0.00%. The “hydrolysis in the blood plasma (in words)” value ([7]; blood plasma of rats, after 15 minutes) was “almost completely hydrolyzed”, the “Content, % from the initial” value ([7]; 0 hour) was 100% and the “Content, % from the initial” value ([7]; 0.25 hour) was 0.00%. The “Content, % from the initial” value ([7]; 1 hour) was 0.00%, the “Content, % from the initial” value ([7]; 2 hour) was 0.00% and the “Content, % from the initial” value ([7]; 4 hour) was 0.00%. For the same compound, the “Content, % from the initial” value ([7]; 8 hour) was 0.00%, the “Content, % from the initial” value ([7]; 24 hour) was 0.00% and the “Content, % from the initial” value ([8]; 0 hour) was 100%. For the same compound, the “Content, % from the initial” value ([8]; 0.25 hour) was 92.6%, the “Content, % from the initial” value ([8]; 1 hour) was 61.8% and the “Content, % from the initial” value ([8]; 2 hour) was 35.9%. For the same compound, the “Content, % from the initial” value ([8]; 4 hour (so in the source)) was 2.68%, the “Content, % from the initial” value ([8]; time cell empty (last line)) was 0.15% and the “Content, % from the initial” value ([8]; time cell empty (line after 2 hour)) was 15.9%.
